Test results reported in patent US20230024778A1, “STRIGOLACTONE RECEPTOR INHIBITOR, AGRICULTURAL COMPOSITION AND USE THEREOF, STRIGA SEED GERMINATION INHIBITOR, AND TRIAZOLE UREA COMPOUND” (The University of Tokyo, priority 2017, published 2023).

System: seeds of Striga (Striga hermonthica)
Experiment: Germination inhibition test of Striga seeds
Format: in vivo
Experimental: The coadministration of the GR24 or the GR24 and the compound 25 was performed on seeds of Striga (Striga hermonthica) pretreated for one week at 30° C. The GR24 treatment was performed with 0.1 μM, and the compound 25 treatment was performed with 50 μM or 100 μM.

With CC1=CC(O/C=C2/C(=O)O[C@@H]3c4ccccc4C[C@H]23)OC1=O (some centres unmarked) [GR24] the “germination of the Striga seeds” value (GR24 0.1 μM added) was “germination of the Striga seeds is accelerated” and the “Germination rate of striga seed” value (GR24 0.1 μM alone, compound 25 0 μM) was 30.92%.
